From patent US20250275928A1, “NANOPARTICLE-BASED ABUSE-DETERRENT FORMULATIONS AND METHODS OF MAKING AND USING” (Purdue Research Foundation, priority 2021, published 2025)
≈ marks a conversion by molar mass, not a printed value.

Legend:
[1] = Equilibrium solubility of thebaine in ethanol; assay type: physicochemical; conditions: organic solvent or mixture, thermodynamic from solid
Protocol: Chemical extractability of thebaine, a model opioid drug, as a mixture with a non-gel forming excipient, Avicel pH 102, or selected gel-forming polymers, was tested using absolute ethanol. […] Physical mixtures of thebaine (600 μg) with 150 mg Avicel or Avicel with selected polymers (80 mg XG, 20 mg XG+30 mg HEC, or 20 mg XG+60 mg CS) mg) were extracted in 1 mL of absolute ethanol for 1 h. Free thebaine without any excipients was also tested for comparison.

[2] = Thermal stability of thebaine (TGA, heating); assay type: physicochemical
[3] = Dissolution in simulated gastric fluid; conditions: after 12 and 24 h
[4] = Chemical extractability from nanocapsules by household solvents

COC1=CC=C2[C@H]3Cc4ccc(OC)c5c4[C@@]2(CCN3C)[C@H]1O5 [thebaine]
solubility thermodynamic at 24 h ([1]; in 24 h): 10.4 mg/mL (≈ 33.4 mM)
solubility thermodynamic at 72 h ([1]; in 72 h): 10.5 mg/mL (≈ 33.7 mM)
drug that withstood heating ([2]; 180° C. for 10 min, drug alone): 86.9%
temperature at which decomposition began (TGA) ([2]; thermogravimetric analysis): around 200 °C
stability in SGF [3]: degraded
solubility in household solvents ([4]; all tested solvents except for 0.9% NaCl and 0.1 M NaOH): soluble
dissolution in household solvents ([4]; most solvents at equivalent concentrations): dissolves completely
